Earlier results in the PKSmart pharmacokinetics tables (Seal et al. 2025).

Test: not given per row; by the article one of three: Lombardo et al. 2013, J Clin Pharmacol 53:178, doi 10.1177/0091270012440282; 'New Drugs at FDA', novel drug approvals for 2021 and 2022 (the article's reference 43); Yap, Li, Chen 2006, J Mol Graph Model 24:383, doi 10.1016
Details: human; in vivo

Structure (SMILES) | clearance [mL/min/kg] | Vd [L/kg] | half-life [h]
COc1ccc2c3c1OC1C(=O)CC[C@@H]4[C@H](C2)N(C)CC[C@@]314 (stereo partly drawn) | 8.82 |  | 
CN1CCN2c3ncccc3Cc3ccccc3[C@@H]2C1 | 8.25 |  | 
CCOC(=O)NNc1ccc(N(CC)C[C@@H](C)O)nn1 | 3.79 |  | 
CC(C)NC[C@@H](O)COc1ccc(COCCOC(C)C)cc1 | 3.55 |  | 
NS(=O)(=O)c1cc(-c2nn[nH]n2)c(NCc2cccs2)cc1Cl | 1.29 |  | 
COC(=O)Nc1c(N)nc(-c2nn(Cc3ccccc3F)c3ncc(F)cc23)nc1N | 0.44 | 0.73 | 30
CCCN[C@@H]1CCc2nc(N)sc2C1 | 8.2 |  | 
CC[C@H](OC(C)=O)C(C[C@@H](C)N(C)C)(c1ccccc1)c1ccccc1 | 4.09 |  | 
CCOC(=O)NC1=C(N2CC2)C(=O)C(NC(=O)OCC)=C(N2CC2)C1=O | 11 |  | 
Nc1nc(NC2CC2)c2ncn([C@@H]3C=C[C@H](CO)C3)c2n1 | 13.1 |  | 
NC[C@H]1O[C@@H](O[C@H]2C(O)[C@@H](O[C@H]3O[C@@H](CO)[C@H](O)[C@@H](N)[C@@H]3O)[C@H](N)C[C@@H]2N)[C@H](N)C[C@@H]1O (stereo partly drawn) | 1.35 |  | 
C[C@H]1CN(C2CCC(C#N)(c3ccc(F)cc3)CC2)CC[C@]1(C(=O)O)c1ccccc1 (stereo partly drawn) | 0.43 |  | 
Cc1ccc(C(=O)c2ccc(CC(=O)O)n2C)cc1 | 1.3 |  | 
COc1cc2c(cc1OC)CN(C(=O)C(C)NC(CCc1ccccc1)C(=O)O)C(C(=O)O)C2 (stereo not drawn) | 3.31 |  | 
CCCCN(CCCC)C[C@H](O)c1cc(Cl)cc2c1-c1ccc(Cl)cc1/C2=C/c1ccc(Cl)cc1 | 3.57 |  | 
COc1ccc(NC(=O)\C=C(C)/C=C/C=C(C)\C=C\C2=C(C)CCCC2(C)C)cc1 | 98.9 |  | 
COCC(=O)Nc1c(I)c(C(=O)NC[C@H](O)CO)c(I)c(C(=O)N(C)C[C@H](O)CO)c1I | 1.53 |  | 
CS(=O)(=O)c1ccc(Oc2cc(F)cc(C#N)c2)c2c1[C@H](O)[C@H](F)[C@@H]2F | 2.03 | 2.17 | 14
C=CC(=O)N1CC[C@H](n2nc(C#Cc3cc(OC)cc(OC)c3)c3c(N)ncnc32)C1 | 5.56 | 1.1 | 2.9

Structure (SMILES) | clearance [mL/min/kg] | Vd [L/kg] | half-life [h]
CCCC[C@@H]1CC(=O)[C@]2(O)O[C@H]3[C@@H](NC)[C@@H](O)[C@@H](NC)[C@H](O)[C@@H]3O[C@@H]2O1 | 1.9 |  | 
CO[C@]1(NC(=O)CSCC#N)C(=O)N2C(C(=O)O)=C(CSc3nnnn3C)CS[C@H]21 | 1.84 |  | 
CC[C@H](CO)NCCN[C@@H](CC)CO | 8.05 |  | 
COc1ccccc1OCCNC[C@@H](O)COc1cccc2[nH]c3ccccc3c12 | 8.7 |  | 
CCN1CC(C(=O)O)C(=O)c2ccc(-c3ccncc3)cc21 (stereo not drawn) | 2 |  | 
C=CC[C@]1([C@H](C)C#CCC)C(=O)NC(=O)N(C)C1=O | 13.3 |  | 
CC12CCC(=O)C=C1C1CC1C1C2CCC2(C)C1C1CC1C21CCC(=O)O1 (stereo not drawn) |  |  | 34
C=C/C=C/C[C@@H](C)[C@@H](O)C1C(=O)NC(CC)C(=O)N(C)CC(=O)N(C)C(CC(C)C)C(=O)NC(C(C)C)C(=O)N(C)C(CC(C)C)C(=O)NC(C)C(=O)NC(C)C(=O)N(C)C(CC(C)C)C(=O)N(C)C(CC(C)C)C(=O)N(C)C(C(C)C)C(=O)N1C (stereo partly drawn) | 17.7 | 35.9 | 30
Nc1nc(=O)c2c([nH]1)N[C@@H]1O[C@@H]3COP(=O)(O)O[C@@H]3C(O)(O)[C@@H]1N2 | 3.02 | 0.3 | 1.45
OC[C@H]1CC[C@@H](n2cnc3c(O)ncnc32)O1 | 15.2 |  | 
C[C@@H]1C[C@H]2[C@@H]3C[C@H](F)C4=CC(=O)C=C[C@]4(C)[C@@]3(F)[C@H](O)C[C@]2(C)[C@@]1(O)C(=O)SCF | 15.6 |  | 
CCCCC[C@H](O)CC[C@@H]1C2Cc3cccc(OCC(=O)O)c3C[C@@H]2C[C@@H]1O (stereo partly drawn) | 7.14 |  | 
NC(Cc1cc(I)c(Oc2ccc(O)c(I)c2)c(I)c1)C(=O)O (stereo not drawn) | 0.25 |  | 
O=C1CC2(CCCC2)CC(=O)N1CCCCN1CCN(c2ncccn2)CC1 | 28.3 |  | 
COc1cc2c(cc1OC)C(=O)C(CC1CCN(Cc3ccccc3)CC1)C2 (stereo not drawn) | 2.53 |  | 
Cc1ccc2nc(N)[nH]c(=O)c2c1Sc1ccncc1 | 2.36 |  | 
COc1ccc2c3c1O[C@@H]1[C@@H](O)C=C[C@@H]4[C@H](C2)N(C)CC[C@]341 | 11 |  | 
O=C(CO)NCCCOc1cccc(CN2CCCCC2)c1 | 6.73 |  | 
O=C(O)C1/C(=C\CO)O[C@H]2CC(=O)N12 (stereo partly drawn) | 3.6 |  | 

Same assay, conditions: human; plasma

Structure (SMILES) | fraction unbound
Cc1cc2c(s1)Nc1ccccc1N=C2N1CCN(C)CC1 | 0.07
O=C(CCC(C(=O)O)N1CCN(C(CCC(=O)NCC(O)CO)C(=O)O)Cc2cccc(n2)CN(C(CCC(=O)NCC(O)CO)C(=O)O)CC1)NCC(O)CO (stereo not drawn) | 0.98
CCOc1ncc(C)c2c1[C@H](c1ccc(C#N)cc1OC)C(C(N)=O)C(C)=N2 (stereo partly drawn) | 0.08
CN1CCC(COc2cnc(-c3cccc(Cn4nc(-c5cccc(C#N)c5)ccc4=O)c3)nc2)CC1 | 0.02
C[C@H]1CO[C@@H]2Cn3cc(C(=O)NCc4ccc(F)cc4F)c(=O)c(O)c3C(=O)N12 | 0.48
CCCCC1(CCCC)CN(c2ccccc2)c2cc(SC)c(OCC(=O)NC(C(=O)NC(CC)C(=O)O)c3ccc(O)cc3)cc2S(=O)(=O)N1 (stereo not drawn) | 0.01
COc1ccc(-n2nccn2)c(C(=O)N2CCC[C@@]2(C)c2nc3c(C)c(Cl)ccc3[nH]2)c1 | 0.01
O=C(O)CCC(NC(=O)NC(CCCCNC(=O)C(Cc1ccc2ccccc2c1)NC(=O)C1CCC(CNC(=O)CN2CCN(CC(=O)O)CCN(CC(=O)O)CCN(CC(=O)O)CC2)CC1)C(=O)O)C(=O)O (stereo not drawn) | 0.35
O=C(c1ccc(NS(=O)(=O)c2cccc3cccnc23)cc1)N1CCN(CC2CC2)CC1 | 0.02
CC(C)CC(NC(=O)C(Cc1ccccc1)NC(=O)C(N)Cc1ccccc1)C(=O)NC(CCCCN)C(=O)N1CCC(N)(C(=O)O)CC1 (stereo not drawn) | 0.75
COC(=O)Nc1c(N)nc(-c2nn(Cc3ccccc3F)c3ncc(F)cc23)nc1N | 0.02
CS(=O)(=O)c1ccc(Oc2cc(F)cc(C#N)c2)c2c1[C@H](O)[C@H](F)[C@@H]2F | 0.55
C=CC(=O)N1CC[C@H](n2nc(C#Cc3cc(OC)cc(OC)c3)c3c(N)ncnc32)C1 | 0.05
CC12CCC(=O)C=C1C1CC1C1C2CCC2(C)C1C1CC1C21CCC(=O)O1 (stereo not drawn) | 0.04
C=C/C=C/C[C@@H](C)[C@@H](O)C1C(=O)NC(CC)C(=O)N(C)CC(=O)N(C)C(CC(C)C)C(=O)NC(C(C)C)C(=O)N(C)C(CC(C)C)C(=O)NC(C)C(=O)NC(C)C(=O)N(C)C(CC(C)C)C(=O)N(C)C(CC(C)C)C(=O)N(C)C(C(C)C)C(=O)N1C (stereo partly drawn) | 0.03
